# Values of other authors in patent US20090193593A1, “METHOD FOR REFRESHING FABRIC ARTICLES” (priority 2008, published 2009).
# Where a name gives a salt, the structure may show the parent alone.
row,Solubility in water,SMILES
1,about 2%,OCCc1ccccc1 [2-phenylethanol]
2,about 4%,OCc1ccccc1 [benzyl alcohol]
3,about 1.8%,"[H]/N=C(\N/C(=N/[H])NCCCCCCNC(=N)NC(=N)Nc1ccc(Cl)cc1)Nc1ccc(Cl)cc1 [chlorhexidine diacetate salt, 1,1′-hexamethylene bis(5-(p-chlorophenyl)biguanide), reference compound]"
4,about 70%,"[H]/N=C(\N/C(=N/[H])NCCCCCCNC(=N)NC(=N)Nc1ccc(Cl)cc1)Nc1ccc(Cl)cc1 [chlorhexidine digluconate salt, 1,1′-hexamethylene bis(5-(p-chlorophenyl)biguanide), reference compound]"

row,SMILES,Solubility in water
1,OCCOc1ccccc1 [2-phenoxyethanol],about 2.67%
